For one data set, the system named is GS4.1 cells. Put plainly: Cytotoxicity (MTS assay), GS4.1 cells, Example 18. The class given is cell-based, human. Conditions: wild-type or S282T replicon cells treated with up to 100 μM. The method, then: (§1) Cells were plated and treated with inhibitors as described above.
Data set [1] is described as follows: Cytotoxicity (MTS assay), GS4.1 cells, Example 18. The class given is cell-based, human. Conditions: human, GS4.1 cells (wild-type); GS4.1 (wild-type), MTS assay, N = 3. The method, then: as §1
On the technique in general: Tetrazolium assays rely on reduction of a dye to a coloured formazan, in cell work by metabolically active cells.

The nature of data set [2]: Cytotoxicity assay (MTS), Zluc cells. The class given is cell-based, human. Conditions: human; Zluc cells, 3 days (Luciferase Assay columns). The method, then:
The cytotoxicity assay measures the viability of cells after treatment with a test compound for 3 days in either GS4.1 cells or Zluc cells. […] The cytotoxicity assay is summarized as follows. Ninety-six-well tissue culture plates were seeded with GS4.1 or Zluc cells. Antiviral compound solutions were made up freshly in medium as 2×-concentrated stocks. Eight additional 3-fold drug dilutions were prepared from these stocks in medium for a total of 9 dilutions. At least four hours after the cells were seeded, drug treatment was initiated by adding one volume of each 2×-concentrated drug dilution to one volume of cells/medium in the tissue culture plates. Cells were then incubated for 3 days at 37° C./5% CO2. After 3 days of treatment, the CellTiter 96® Aqueous One Solution cell proliferation assay (Promega) was performed by adding the MTS solution to each well. The plates were then incubated at 37° C./5% CO2 for 3.5 hours. Plates were then read in a Victor^3V 1420 multilabel counter (Perkin Elmer) and CC50 concentrations were determined using Microsoft Excel and XLfit 4.1 software.

The target of the next data set is CYP2C19 (Homo sapiens, UniProt P33261). Put plainly: Incubation with human recombinant CYP450 supersomes, 2C19. The class given is in vitro ADME. Conditions: CYP450 2C19 supersomes, 60 min, 10 μM, average of two experiments. On the procedure: (§2) Supersomes—Incubations were conducted in a final volume of 0.1 mL reaction buffer (50-100 mM potassium phosphate, pH 7.4 or 100 mM Tris-HCL, pH 7.4) according to protocol provided with each CYP450 supersome. Each reaction contained […] of CYP450 supersome, 1.3 mM NADP^+, 3.3 mM glucose-6-phosphate, 0.4 U/mL glucose-6-phosphate dehydrogenase, 3.3 mM MgCl2 and 10 μM Compound 1. Following incubation for 60 min at 37° C., 100 μL of stop solution (acetonitrile:methanol; 1:1) was added and samples centrifuged for 10 min at 10,000×g. The supernatant was then dried and reconstituted in 10 mM potassium phosphate, pH 5, further transferred to an HPLC glass vial and analyzed by HPLC-UV (described above).

Data set [3] concerns HCV genotype 1b replicon (GS4.1 cells). Put plainly: In vitro combination of Compound 1 and ribavirin on HCV replicon (NS4A ELISA; MacSynergy II, CombiTool, CalcuSyn). The class given is cell-based. Particulars: Hepatitis C virus, 72 h, single-drug titration experiments, three days. The method, then: This setup was run in duplicate in each 96-well plate.
Cells were incubated with inhibitors for three days at 37° C./5% CO2.
After three days of drug treatment, media was removed from the plates via gentle tapping and the cells were fixed to the plates with 100 μL/well of 1:1 acetone:methanol.
After one minute of incubation at room temperature, plates were washed three times with 100 μL/well of ELISA wash solution and then blocked with 150 μL/well of 10% FBS-TNE.
After a one hour incubation period at 37° C., each plate was washed three times with 100 μL/well of ELISA wash solution. Color development was then initiated with 100 μL/well of OPD solution.
After a 30 minute incubation period in the dark at room temperature, reactions were stopped by adding 100 μL of 2NH2SO4 to each well.
The absorbance was measured at 490 nm on a Victor^3 V 1420 multilabel counter (Perkin Elmer).

The target of data set [4] is CYP3A4 (Homo sapiens, UniProt P08684). Put plainly: Effect of CYP3A4 inhibitors (ketoconazole, ritonavir) on metabolic stability in human liver microsomes. The class given is in vitro ADME. Conditions: human microsomes 1 mg/mL, 60 min, 10 μM, NADPH. On the procedure: (§3) Incubations were conducted in a final volume of 0.1 mL per incubation time point. […] Final solvent (DMSO or methanol) concentration was maintained at 0.2%. Reactions were initiated by the addition of an NADPH regenerating system (1.3 mM NADP^+, 3.3 mM glucose-6-phosphate, 0.4 U/ml glucose-6-phosphate dehydrogenase, and 3.3 mM MgCl2, final concentrations). Incubations with no inhibitor served as control. Reactions were terminated at 30 min (monkey) or 60 min (rat and human) by the addition of 0.2 mL of stop solution (acetonitrile). The samples were vortex-mixed for 30 sec and then centrifuged at 10,000×g for 10 min. The supernatant was dried using a Labconco CentriVap concentrator and the dry residue reconstituted in water, transferred to an HPLC glass vial and analyzed by HPLC-UV method 1 (described above).
(§4) Because Compound 1 is rapidly metabolized in monkey liver microsomes, incubation conditions were adjusted by reducing protein content to 0.5 mg/mL and incubation time to 30 min. Incubation conditions for rat and human were unchanged; protein was 1 mg/mL and incubation time was 60 min.
On the technique in general: Liver microsomes are vesicles of endoplasmic reticulum, rich in cytochrome P450 enzymes.

For another data set, the target named is CYP2C8 (Homo sapiens, UniProt P10632). Put plainly: Incubation with human recombinant CYP450 supersomes, 2C8. The class given is in vitro ADME. Conditions: CYP450 2C8 supersomes, 60 min, 10 μM, average of two experiments. The method, then:
as §2

For data set [5], the system named is CYP3A4. Put plainly: Effect of CYP3A4 inhibitors (ketoconazole, ritonavir) on metabolic stability in rat liver microsomes. The class given is in vitro ADME. Conditions: rat microsomes 1 mg/mL, 60 min, 10 μM, NADPH. On the procedure: as §3, §4

Molecules are shown by their SMILES.

Sequence of CYP3A4 (Homo sapiens, UniProt P08684) (P08684 whole entry): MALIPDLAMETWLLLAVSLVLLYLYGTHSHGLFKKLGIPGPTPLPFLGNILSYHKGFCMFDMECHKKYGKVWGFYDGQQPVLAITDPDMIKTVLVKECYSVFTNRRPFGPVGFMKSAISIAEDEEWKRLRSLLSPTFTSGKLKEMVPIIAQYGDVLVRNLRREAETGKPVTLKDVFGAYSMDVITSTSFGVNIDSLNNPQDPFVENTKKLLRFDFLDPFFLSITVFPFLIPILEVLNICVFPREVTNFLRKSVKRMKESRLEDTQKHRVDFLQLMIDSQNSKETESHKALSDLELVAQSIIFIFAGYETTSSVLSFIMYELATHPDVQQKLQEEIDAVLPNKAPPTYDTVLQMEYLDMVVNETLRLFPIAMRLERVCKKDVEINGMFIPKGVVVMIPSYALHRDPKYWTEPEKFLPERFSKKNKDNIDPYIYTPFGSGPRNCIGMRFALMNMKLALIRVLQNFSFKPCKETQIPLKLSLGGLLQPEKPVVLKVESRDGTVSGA
Sequence of CYP2C19 (P33261 whole entry): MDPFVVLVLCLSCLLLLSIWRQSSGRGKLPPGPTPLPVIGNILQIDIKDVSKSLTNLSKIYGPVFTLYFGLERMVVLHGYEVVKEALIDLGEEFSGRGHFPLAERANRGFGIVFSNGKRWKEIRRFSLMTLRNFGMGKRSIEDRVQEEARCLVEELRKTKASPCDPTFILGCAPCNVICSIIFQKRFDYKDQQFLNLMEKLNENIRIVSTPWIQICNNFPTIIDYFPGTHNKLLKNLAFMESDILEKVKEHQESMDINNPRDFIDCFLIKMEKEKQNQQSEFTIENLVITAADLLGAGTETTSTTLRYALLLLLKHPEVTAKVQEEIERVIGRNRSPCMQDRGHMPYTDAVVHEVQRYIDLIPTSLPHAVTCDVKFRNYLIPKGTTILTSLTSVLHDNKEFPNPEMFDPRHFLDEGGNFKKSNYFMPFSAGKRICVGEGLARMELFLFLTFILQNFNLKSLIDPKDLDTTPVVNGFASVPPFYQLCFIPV
Sequence of CYP2C8 (P10632 whole entry): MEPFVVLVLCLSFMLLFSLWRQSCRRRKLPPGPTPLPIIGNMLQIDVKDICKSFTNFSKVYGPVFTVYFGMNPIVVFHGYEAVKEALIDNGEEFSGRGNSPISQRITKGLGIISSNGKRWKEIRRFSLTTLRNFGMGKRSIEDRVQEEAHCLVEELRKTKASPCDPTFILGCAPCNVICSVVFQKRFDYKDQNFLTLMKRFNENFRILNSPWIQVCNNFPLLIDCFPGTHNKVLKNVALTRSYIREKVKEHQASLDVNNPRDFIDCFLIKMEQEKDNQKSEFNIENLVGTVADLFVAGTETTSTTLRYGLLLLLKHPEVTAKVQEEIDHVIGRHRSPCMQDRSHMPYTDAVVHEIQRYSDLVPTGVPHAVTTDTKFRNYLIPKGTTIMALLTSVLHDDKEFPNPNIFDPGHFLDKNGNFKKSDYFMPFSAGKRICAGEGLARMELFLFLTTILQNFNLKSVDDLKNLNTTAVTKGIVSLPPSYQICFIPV

For the compound `CC(C)(CO)C(=O)SCCOP(=O)(NCc1ccccc1)OC[C@H]1O[C@@H](n2cnc3c(=O)[nH]c(N)nc32)[C@](C)(O)[C@@H]1O` (mixture of isomers) [Compound 1, 3-hydroxy-2,2-dimethyl-thiopropionic acid S-(2-{[(2R,3R,4R,5R)-5-(2-amino-6-oxo-1,6-dihydro-purin-9-yl)-3,4-dihydroxy-4-methyl-tetrahydro-furan-2-ylmethoxy]-benzylamino-phosphoryloxy}-ethyl) ester], the “in vitro cytotoxicity (MTS)” value in the data set on GS4.1 cells was “no evidence of in vitro cytotoxicity”. The CC50 at 3 days in data set [1] and in data set [2] was over 100 µM each time. For the same compound, the “% Residual Compound 1” value at CYP2C19 came out at 111%; at CYP3A4 [4] (Ketoconazole 0.1 μM), 103%; on CYP3A4 [4] (Ketoconazole 1 μM), 117%; on CYP3A4 [4] (Ritonavir 0.1 μM), 92%; at CYP3A4 [4] (Ritonavir 1 μM), 117%; at CYP3A4 [4] (inhibitor 0 μM), 65%. In addition, the “% Residual Compound 1” value on CYP2C8 was 105%; with CYP3A4 [5] (Ketoconazole 0.1 μM), 83%; in the data set on CYP3A4 [5] (Ketoconazole 1 μM), 120%; with CYP3A4 [5] (Ritonavir 0.1 μM) it was 101%; in the data set on CYP3A4 [5] (Ritonavir 1 μM) it was 123%; in the data set with CYP3A4 [5] (inhibitor 0 μM) it was 86%. In addition, in data set [3], the EC50 was 0.4 ± 0.09 µM.

For orientation: CC50 means the concentration that lowers cell viability or growth by half. Read a high CC50 as lower toxicity to the cells. One may read the EC50 as the concentration giving half of the maximal effect.

The values are drawn from patent publication US20100003217A1, “Compounds and Pharmaceutical Compositions for the Treatment of Viral Infections” (priority 2008, published 2010).
